The values that follow come from patent US11643424B2, “Cardiopathy-reducing phosphodiester lipids” (Signpath Pharma, Inc., priority 2018, dated 2023).

The subject of test [1] is QTc prolongation. The test is described as follows: QTc prolongation by increasing oral doses of moxifloxacin, without or with concomitant 14:0 lyso PG.
Test [2] relates to AV block. The test is described as follows: Drug-induced AV block: intravenous Fingolimod and/or verapamil, without and with oral 14:0 lyso PG (ECG, PR intervals). In kind it is in vivo, guinea pigs. The protocol:
To test this hypothesis, guinea pigs were instrumented (subcutaneous ECG leads) and exposed to increasing intravenous doses of Fingolimod and/or verapamil, without and with an oral dose of 14:0 lyso PG. ECG signals were recorded continuously for 2 hours post-dose for the AV blockers Fingolimod and verapamil. PR intervals were measured following the infusion of Fingolimod. Measurements of PR were stopped when the P wave disconnected from the QRS complexes, indicating 3rd degree AV block.
Guinea pigs exposed to an intravenous infusion of Fingolimod alone transitioned to 1st degree AV block as of a dose of 15 μg/kg, which rapidly progressed to a Mobitz Type-1, 2nd-degree AV block at 20 μg/kg, and finally progressed to 3rd degree AV block as of a dose of 23 μg/kg.
The cohort of guinea pigs exposed to verapamil received an i.v. injection of 0.5 mg/kg, followed 60 minutes later by an intravenous infusion of Fingolimod. A 1st-degree AV block appeared at a dose of 7 μg/kg, changed to a Mobitz-Type-1 2nd degree AV block at 10 μg/kg, and transitioned to 3rd-degree dissociation between P waves and QRS complexes as of 45 μg/kg.
The third cohort of animals received an initial oral gavage of 1.0 mg/kg 14:0 lyso PG, followed 60 minutes later by an intravenous dose of 0.5 mg/kg verapamil. Sixty (60) minutes post-verapamil, Fingolimod was infused into the animals as described above. […] A Mobitz-Type-2 AV block appeared in 2 out of 6 animals with P-QRS dissociation observed at a dose of 51 μg/kg in those two animals, and at 300 μg/kg in the rest of the animals in the cohort.

Test [3] concerns K+ current. The note with it: cited from earlier work.
[4] abbreviates: oral 1.0 mg/kg 14:0 lyso PG, then verapamil 0.5 mg/kg i.v., then Fingolimod infusion.

For `CCCCCCCCCCCCCC(=O)OC[C@@H](O)COP(=O)(O)OCC(O)CO` (mixture of isomers) [14:0 lyso PG, 1-myristoyl-2-hydroxy-sn-glycero-3-phospho-(1′-rac-glycerol)], in test [1] (concomitant dose of 14:0 lyso PG), the “shift in the QTc-dose response of Moxifloxacin” value is on record as “statistically significant right-shift”. The “changes in QTc” value in test [1] (concomitant dose of 14:0 lyso PG with moxifloxacin) was “no, or very little, changes in QTc”. In test [2] (setting [4]), the “Fingolimod dose at P-QRS dissociation, rest of the animals in the cohort” value amounted to 0.3 mg/kg and the “animals in which a Mobitz-Type-2 AV block appeared” value is 2 out of 6. The “Fingolimod dose at P-QRS dissociation, the two animals with Mobitz-Type-2 AV block” value in test [2] (oral 1.0 mg/kg 14:0 lyso PG, then verapamil 0.5 mg/kg i.v., then Fingolimod infusion, 2 out of 6 animals) turned out to be 0.051 mg/kg. This molecule yielded a Fingolimod dose at which 1st-degree AV block appeared in test [2] (oral gavage 1.0 mg/kg 14:0 lyso PG, 60 min later i.v. verapamil 0.5 mg/kg, 60 min later Fingolimod infusion) of 0.2 mg/kg.
With `CCCCc1oc2ccc(NS(C)(=O)=O)cc2c1C(=O)c1ccc(OCCCN(CCCC)CCCC)cc1` [Dronedarone], the “reduction of K+ current” value in test [3] was 69%.
